This note sets out measurements from patent US9605027B2, “Polypeptides that bound to IL-23 receptor and inhibit binding of IL-23 and cell signaling thereof” (Medical Diagnostic Laboratories, LLC, priority 2011, dated 2017).

Entries after “also recorded” stand apart in the source; their conditions may differ. Where two headings read alike, the source gives them in different places. Peptide text beside a SMILES is read from it.

The experiment deals with IL-23R pathway in STAT3-Luc reporter DB cells (Homo sapiens, UniProt Q5VWK5). In words: Cell-based STAT3-Luc reporter DB cell assay (DB-Luc), inhibition of IL-23. The procedure: The Cignal STAT3 reporter (SA Biosciences, CCS-9028L), designed to measure the transcriptional activity of STAT3 homodimers, was transiently transfected into the DB cells. The stably transfected STAT3-Luc reporter clone was selected using 200 ng/ml of Hygromycin B.
IL-23R pathway in STAT3-Luc reporter DB cells, sequence (Q5VWK5 24-629 limits assumed): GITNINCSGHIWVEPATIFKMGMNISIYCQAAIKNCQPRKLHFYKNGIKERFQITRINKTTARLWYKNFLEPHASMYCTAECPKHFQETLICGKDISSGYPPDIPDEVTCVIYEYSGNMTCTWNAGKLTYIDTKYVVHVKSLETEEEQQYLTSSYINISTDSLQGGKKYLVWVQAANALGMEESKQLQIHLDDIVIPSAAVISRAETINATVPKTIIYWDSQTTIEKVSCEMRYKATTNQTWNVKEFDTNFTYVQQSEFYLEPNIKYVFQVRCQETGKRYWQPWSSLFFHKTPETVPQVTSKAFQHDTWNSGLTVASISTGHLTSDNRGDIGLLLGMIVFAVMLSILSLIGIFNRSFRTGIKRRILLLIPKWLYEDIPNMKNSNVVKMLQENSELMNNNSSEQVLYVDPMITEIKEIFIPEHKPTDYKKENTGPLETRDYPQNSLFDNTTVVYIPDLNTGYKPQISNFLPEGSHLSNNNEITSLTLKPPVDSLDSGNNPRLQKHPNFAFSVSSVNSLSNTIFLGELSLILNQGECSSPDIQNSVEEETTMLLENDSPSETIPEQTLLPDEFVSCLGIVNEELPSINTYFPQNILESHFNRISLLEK
The stably transfected STAT3-Luc reporter DB cells (0.5×10^6) were cultured in 100 μl of RPMI+10% FBS. IL-23 was added to the cells and incubated at 37° C. for 4 hours. Luciferase activity was measured using Dual-Glo luciferase assay system (Promega).
The isolated cyclic polypeptide no. 23.15-Fc fusion protein and cyclic polypeptide no. 23.19 were used in a cell-based assay to measure the IC50 values. The stably transfected STAT3-Luc reporter DB cells (0.5×10^6) were cultured in 100 μl of RPMI+10% FBS. The cells were pre-incubated with different concentration of isolated cyclic polypeptide no. 23.15-Fc fusion protein or polypeptide no. 23.19 for 30 minutes at 37° C. 50 ng/ml of IL-23 was added to the cells and incubated at 37° C. for an additional 4 hours. Luciferase activity was measured using Dual-Glo luciferase assay system (Promega). The IC50 values of isolated cyclic polypeptide no. 23.15-Fc fusion protein and cyclic polypeptide no. 23.19 are 2.5 μM and 2.5 μM respectively.
The isolated peptide no. 7 (SEQ ID NO: 156) and peptide no. 23.19 (SEQ ID NO: 130) (it is a cyclic version of the polypeptide no. 23.15) were used in a cell based assay to compare their inhibitory activity. The stably transfected STAT3-Luc reporter DB cells (0.5×10^6) were cultured in 100 μl of RPMI+10% FBS. The cells were pre-incubated with two different concentrations (10 μM and 2 μM) of isolated peptides for 30 minutes at 37° C. 50 ng/ml of IL-23 was added to the cells and incubated at 37° C. for an additional 4 hours. Luciferase activity was measured using Dual-Glo luciferase assay system (Promega). The inhibitory activity of isolated peptide no. 7 (SEQ ID NO: 156) is better than that of peptide no. 23.19 (SEQ ID NO: 130) (a cyclic version of polypeptide no. 23.15 (SEQ ID NO: 126) (See, FIG. 62).
DB cells express IL-23R on the cell surface. In addition, IL-23 stimulated the DB cells through the activation of STAT3 by phosphorylation (p-STAT3) (Example 7 (Figures. 14 and 15)). Based on these observations, DB cells were used to develop a cell-based assay to measure the inhibitory activity of peptide and peptide-Fc fusion protein in the IL-23R pathway. […]
The Cignal STAT3 reporter (SA Biosciences, CCS-9028L), which is designed to measure the transcriptional activity of STAT3 homodimers, was transiently transfected into the DB cells. The stably transfected STAT3-Luc reporter clone was selected using 200 ng/ml of Hygromycin B. The activity of IL-23R pathway can be measured by the transcriptional activity of STAT3 homodimers. […]

The term IC50 denotes the concentration at which inhibition is half-maximal. For `CSCC[C@@H]1NC(=O)[C@H](CCCCN)NC(=O)[C@H](C)NC(=O)[C@H](C)NC(=O)[C@H](CS)NC(=O)[C@H](CC(N)=O)NC(=O)[C@H](CCCCN)NC(=O)[C@H](CC(C)C)NC(=O)[C@H](Cc2c[nH]c3ccccc23)NC(=O)[C@H](Cc2ccc(O)cc2)NC(=O)[C@H](CC(=O)O)NC(=O)[C@H](C(C)C)NC(=O)[C@H](Cc2c[nH]c3ccccc23)NC(=O)[C@H]([C@@H](C)O)NC1=O` [2HT AA] (cyclo(AAKMTWVDYWLKNC)), under “cyclic vs linear peptides”, the “inhibitory activity in cell-based DB-Luc assay” value was “did not eliminate the inhibitory activity; also recorded: best inhibitory activity”. Moreover, the IC50 (procedure of Example 29, read-out: IC50, cell-based DB-Luc assay) stood at 342 nM.
Consider `CSCC[C@@H]1NC(=O)[C@H](C)NC(=O)[C@@H](N)CSSC[C@@H](C(=O)O)NC(=O)[C@H](CCCNC(=N)N)NC(=O)CNC(=O)[C@H](Cc2ccc(O)cc2)NC(=O)[C@H](CC(C)C)NC(=O)[C@H](Cc2c[nH]c3ccccc23)NC(=O)[C@H](Cc2ccc(O)cc2)NC(=O)[C@H](CC(=O)O)NC(=O)[C@H](CCC(N)=O)NC(=O)[C@H](Cc2c[nH]c3ccccc23)NC(=O)[C@H]([C@@H](C)O)NC1=O` [23.19], for which, for the setting “50 ng/ml IL-23, 4 hours, read-out: IC50, cell-based STAT3-Luc assay”, the IC50 came to 2500 nM.
